Here are results for three compounds from patent US5858684A, “Method of screening calcium receptor-active molecules” (priority 1995, dated 1999).

Entries after “also recorded” stand apart in the source; their conditions may differ. Where two headings read alike, the source gives them in different places.

Assay [1] concerns osteoclast calcium receptor. Briefly: increase in [Ca2+]i in indo-1-loaded rat osteoclasts. Type of assay: cell-based.
For assay [2], the system named is PTH secretion from bovine parathyroid cells. Briefly: PTH secretion from bovine parathyroid cells. Type of assay: cell-based. Particulars: bovine parathyroid cells.
In assay [3] the test system is increases in [Ca2+]i elicited by extracellular Ca2+ in bovine parathyroid cells. Briefly: block of extracellular Ca2+-induced [Ca2+]i increase / Ca2+ influx in bovine parathyroid cells. Type of assay: cell-based. As to conditions: 30 μM.
Method: The cells were then pelleted, resuspended in the same buffer, but lacking the ester, and incubated a further 15 minutes at 37° C. The cells were subsequently washed twice with PCB containing 0.5 mM CaCl2 and 0.5% BSA and maintained at room temperature (about 20° C.). Immediately before use, the cells were diluted five-fold with prewarmed 0.5 mM CaCl2 -PCB to obtain a final BSA concentration of 0.1%. The concentration of cells in the cuvette used for fluorescence recording was 1-2×10^6 /ml.
The fluorescence of indicator-loaded cells was measured at 37° C. in a spectrofluorimeter (Biomedical Instrumentation Group, University of Pennsylvania, Philadelphia, Pa.) equipped with a thermostated cuvette holder and magnetic stirrer using excitation and emission wavelengths of 340 and 510 nm, respectively. […] Leakage of dye is dependent on temperature and most occurs within the first 2 minutes after warming the cells in the cuvette. Dye leakage increases only very slowly thereafter. To correct the calibration for dye leakage, cells were placed in the cuvette and stirred at 37° C. for 2-3 minutes. The cell suspension was then removed, the cells pelleted, and the supernatant returned to a clean cuvette. […] This estimate was subtracted from the apparent Fmin.
Assay [4] deals with PTH secretion from human parathyroid cells. Briefly: PTH secretion from human parathyroid cells. Type of assay: cell-based. As to conditions: human (adenoma) parathyroid cells. On the procedure:
PTH secretion was measured by first suspending cells in PCB containing 0.5 mM CaCl2 and 0.1% BSA.
For human cells, a commercially available radioimmunoassay kit (INS-PTH; Nichols Institute, Los Angeles, Calif.) which recognizes intact and N-terminal human PTH was used because GW-1 antibody recognizes human PTH poorly.

Assay [5] is described as follows: serum/blood ionized Ca2+ in rats. Type of assay: in vivo, rat. As for the experimental part:
Compounds shown to activate the bovine parathyroid cell calcium receptor in vitro were tested for hypocalcemic activity in vivo. Male Sprague-Dawley rats (200 g) were maintained on a low calcium diet for one week prior to receiving test substance or vehicle as control. Blood was collected from the tail vein three hours after the intraperitoneal administration of NPS 467. […] Serum total calcium, albumin and phosphate were measured by techniques well known in the art.
Rats (male, Sprague-Dawley, 250-300 g) were fed standard rat chow and fasted overnight prior to the experiment. NPS R-467 was suspended in corn oil and administered as a single oral dose through a gavage needle. Three hours later a sample of blood was taken from the tail vein and assessed for ionized Ca^2+ levels.

Assay [6] is described as follows: hypocalcemic response in parathyroidectomized rats. Type of assay: in vivo, rat. As to conditions: NPS R-467 10 mg/kg i.p., 6 hours; NPS R-568 oral. The text has this:
To determine the primary target tissue upon which NPS R-467 acts to cause a hypocalcemic response, the parathyroid glands in rats were surgically removed. Animals receiving a total parathyroidectomy become hypocalcemic and are largely dependent upon dietary calcium to maintain serum Ca^2+ homeostasis.

Assay [7] addresses T1, calcium receptor expressed from bovine parathyroid cell mRNA in Xenopus oocytes (Bos taurus, UniProt P35384).
T1 sequence (P35384 20-1085): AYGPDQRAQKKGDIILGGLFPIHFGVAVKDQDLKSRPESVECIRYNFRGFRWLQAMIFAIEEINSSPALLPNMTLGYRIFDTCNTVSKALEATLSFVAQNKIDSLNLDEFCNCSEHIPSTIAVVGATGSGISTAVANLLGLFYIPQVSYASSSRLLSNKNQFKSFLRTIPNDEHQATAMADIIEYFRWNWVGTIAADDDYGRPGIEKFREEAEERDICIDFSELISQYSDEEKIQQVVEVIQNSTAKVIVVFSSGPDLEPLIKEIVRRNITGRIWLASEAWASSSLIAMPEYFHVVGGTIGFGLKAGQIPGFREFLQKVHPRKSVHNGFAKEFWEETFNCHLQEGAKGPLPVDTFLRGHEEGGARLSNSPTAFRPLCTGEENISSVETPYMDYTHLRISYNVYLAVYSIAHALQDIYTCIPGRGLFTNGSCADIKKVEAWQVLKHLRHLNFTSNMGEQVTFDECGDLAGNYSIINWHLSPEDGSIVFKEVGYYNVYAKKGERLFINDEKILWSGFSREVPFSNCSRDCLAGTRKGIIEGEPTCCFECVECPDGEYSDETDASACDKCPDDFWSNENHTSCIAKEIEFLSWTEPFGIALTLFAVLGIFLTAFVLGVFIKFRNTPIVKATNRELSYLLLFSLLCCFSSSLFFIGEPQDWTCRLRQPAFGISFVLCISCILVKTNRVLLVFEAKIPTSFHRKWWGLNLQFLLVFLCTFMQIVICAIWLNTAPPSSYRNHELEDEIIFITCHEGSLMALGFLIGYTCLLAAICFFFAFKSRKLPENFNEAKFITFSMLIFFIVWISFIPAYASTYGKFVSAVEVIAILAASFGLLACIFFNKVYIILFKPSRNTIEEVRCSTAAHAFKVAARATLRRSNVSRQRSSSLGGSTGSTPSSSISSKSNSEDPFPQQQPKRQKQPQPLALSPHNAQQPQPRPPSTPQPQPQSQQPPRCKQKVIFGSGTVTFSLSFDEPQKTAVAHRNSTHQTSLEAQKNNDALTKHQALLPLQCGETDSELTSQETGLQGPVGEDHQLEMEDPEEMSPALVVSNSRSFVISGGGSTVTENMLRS
Briefly: Cl- current in Xenopus oocytes injected with bovine parathyroid mRNA. Type of assay: cell-based. As to conditions: 30 μM. On the procedure:
Glass capillary tubes (1 mm diameter) were pulled to a fine tip and manually broken to achieve a tip diameter of about 15 μmeters. A droplet of mRNA (1 ng/nl in diethylpyrocarbonate (DEPC)-treated water) was placed onto […]® and drawn into the capillary tube by suction. The capillary tube was then connected to a picospritzer (WPI Instruments) and the volume of the air-pulsed droplets adjusted to deliver 50 ng of mRNA (typically 50 nl). A 35-mm culture dish with a patch of nylon stocking fixed to the bottom was used to secure the oocytes during injection of mRNA into the vegetal pole. The injected oocytes were placed into a 35-mm culture dish containing MBS, 100 μg/ml penicillin and 100 μg/ml streptomycin and incubated at 18° C. for 3 days.
Following incubation, an oocyte was placed into a 100-μl plastic chamber and superfused with MBS at a flow rate of 0.5 ml/min using a peristaltic pump. Test molecules or inorganic polycations were added by rapidly moving the tubing into different buffers. Recording and current-passing electrodes were constructed from thin-wall capillary tubing pulled to a resistance of 1-3 Mohms and filled with 3M KCl. […] Currents were recorded directly onto a strip chart recorder.

Assay [8] can be described thus: serum ionized Ca2+ in 5/6 nephrectomized rats (secondary hyperparathyroidism model). Type of assay: in vivo, rat. Particulars: 10 mg/kg i.p.; within 2 hours. The text has this: An accepted and widely used animal model of secondary hyperparathyroidism arising from chronic renal failure is the 5/6 nephrectomized rat. Animals receiving such surgery become initially hypocalcemic and, to maintain serum Ca^2+ levels, there is a compensatory hyperplasia of the parathyro:Ld glands and elevated levels of circulating PTH. Male Spracue-Dawley rats (250 g) received a 5/6 nephrectomy and were allowed to recover for 2 weeks. At this time they were normocalcemic (due to elevated levels of serum PTH).

A short description of assay [9]: serum parathyroid hormone in a human. Type of assay: in vivo. As to conditions: single oral doses 20-400 mg. From the text:
(§1) A range of single oral doses was used to assess safety, tolerance, and changes in primary hyperparathyroidism markers (e.g., plasma concentrations of parathyroid hormone and ionized serum calcium) and of serum calcitonin.

The next assay is described as follows: circulating PTH in rats. Type of assay: in vivo, rat.
A short description of assay [10]: serum calcitonin in a human. Particulars: single oral doses 20-400 mg. Type of assay: in vivo.
From the text: as §1

A short description of assay [11]: plasma calcitonin in rats. Type of assay: in vivo, rat. Particulars: p.o.
The mark [12] stands for this setting: 10 mg/kg i.p., single dose, normal diet.

Regarding `NC[C@@H]1O[C@H](O[C@H]2[C@@H](O)[C@H](O[C@@H]3[C@@H](O)[C@H](N)C[C@H](N)[C@H]3O[C@H]3O[C@H](CN)[C@@H](O)[C@H](O)[C@H]3N)O[C@@H]2CO)[C@H](N)[C@@H](O)[C@@H]1O` [Neomycin], in assay [1], the “block of [Ca2+]i response to 25 mM extracellular Ca2+” value is given as “did not block the increase”; the “increase in [Ca2+]i in osteoclasts” value is recorded as “failed to evoke any increase”; the “increase in [Ca2+]i in osteoclasts, overall” value was “none of these caused any large increase”; the “increase in [Ca2+]i in rat osteoclasts” value is given as “Neither”. In addition, the “effect on basal [Ca2+]i and on extracellular Ca2+-elicited increase” value in assay [1] (5 mM) is reported as “without effect on basal”. Also, the “increase in [Ca2+]i in osteoclasts, overall” value in assay [1] (listed as neomycin B) is recorded as “fail to evoke increases”. Besides, the “inhibition of PTH secretion” value in assay [2] is “inhibited PTH secretion to the same extent”. The “effect on [Ca2+]i increases elicited by extracellular Ca2+” value in [3] is given as “blocks transient, but does not block steady-state increases”. The “inhibition of PTH secretion” value in assay [4] (listed as Neomycin B) was “inhibited PTH secretion”. Further, the “inhibition of PTH secretion” value in assay [4] (listed as neomycin B) was “inhibit PTH secretion”.

For the compound `COc1cccc([C@@H](C)NCCCc2ccccc2)c1` (single isomer, unassigned) [NPS R-467], in assay [5] (setting [12]), the “decrease in serum ionized Ca2+ from the control level” value is given as 22% and the “time to maximal fall in serum ionized Ca2+” value is no more than 1 h. The “serum ionized Ca2+, oral” value in assay [5] (single oral dose in corn oil, 3 hours) is on record as “lowers serum ionized calcium; also recorded: dose-dependent reduction in serum levels of ionized”. The “serum ionized Ca2+ in parathyroidectomized rats” value in assay [6] is reported as “did not cause any change in serum ionized”. Besides, the “Cl- current” value in [7] was “rapid increase in Cl^-”. Moreover, in assay [8], the “serum ionized Ca2+ as % of controls” value is recorded as 83 % of controls.

Regarding `COc1cccc([C@@H](C)NCCCc2ccccc2Cl)c1` [NPS R-568, (R)-(+)-N-[3-(2-chlorophenyl)propyl]-amethyl-α-3-methoxybenzylamine], in [9], the “plasma PTH in human” value is “transient dose-dependent decrease in plasma PTH concentration”. For the same compound, in assay [5] (p.o., rats), the “plasma Ca2+” value is “rapid, dose-dependent decrease”. Besides, the “circulating levels of PTH” value in the assay “circulating PTH in rats” is given as “decreases in the levels of serum PTH; also recorded: rapid, dose-dependent decrease”. In addition, the “serum calcitonin in human” value in [10] is “no apparent change in serum calcitonin”. Also, the “serum ionized Ca2+ in parathyroidectomized rats” value in [6] is “fails to elicit a hypocalcemic response”. The “plasma calcitonin” value in assay [11] was “an increase in calcitonin”.
